Results reported in patent US20250231157A1, “METHOD FOR DETERMINING THE PARTITION OF NAPHTHENIC ACIDS FROM A PRODUCTION WATER MIMICKING SYSTEM AND MIMICKING SYSTEM” (PETRÓLEO BRASILEIRO S.A. – PETROBRAS, priority 2023, published 2025).

Experiments:
[1] = Partition equilibrium with addition of calcium and strontium salts to the aqueous phase; format: physicochemical; settings: for Migration: salinity 3.5%
Procedure: The addition of salts to the reaction system is of fundamental importance when one intends to mimic field conditions. In this sense, in addition to continuing the study of the salinity effect (Example 4), the insertion of salts containing Ca^2+ and Sr^2+ ions, known to be present in seawater, was tested. To this end, the projects were based on the literature (Zheng, J. et al. Offshore produced water management: A review of current practice and challenges in harsh/Arctic environments. Mar. Pol. Bul. 2016, 104, 7-19) and four concentrations of each of the two ions were evaluated (400.0, 1200.0, 2600.0 and 9000.0 mg·L^−1), maintaining salinity at 3.5% (m·v^−1).
In short, the experimental results were generated in triplicate, using 99% NaCl to add salinity to the aqueous fraction and PA calcium chloride and PA strontium chloride to add calcium and strontium, respectively.
The addition of calcium and strontium to the reaction system, in the form of salts, aims at mimicking the real scenario in which both species are present (regardless of the salinity of the medium), especially in the well condition. This study aimed at understanding the effect (on the migration of acids to the organic phase) of this ion in the system also at concentrations higher than 10 mM. Finally, the experiments (in triplicate) with divalent strontium ions followed the same rationale.

[2] = Partition equilibrium under the influence of salinity (NaCl), glass reactor, neutralization titration; format: physicochemical
Procedure: The variation in salinity (and its effect on acidic species) is due to the large variation in salinity found between the portions of bottom-hole water, middle-well water and surface water. Thus, systems with salinity (i.e., NaCl) between 3.5 and 30% (m·v^−1) were tested in a glass reactor, and neutralization titration was performed (in triplicate analysis), as previously described. Furthermore, the experimental results were generated in triplicate, using 99% NaCl (Sigma-Aldrich) with five acidic species.

[3] = as above; format: physicochemical; settings: Salinity 0 (%, m · m^−1) NaCl
[4] = Control experiments: availability of the species in alkaline aqueous medium without using the reactor; format: physicochemical; settings: acid solubilized directly in aqueous phase, no reactor
Procedure: Previously, the back titration procedure was internalized and optimized (Example 1), ensuring that the reproducibility of the measurements was adequate (standard deviation values below 10%, for example) and that the recoveries were close to what was expected based on the purity of the reagents (i.e., close to or above 90%). […] Control experiments were performed (measuring the availability of the species in an aqueous medium, without using the reactor) by solubilizing the organic acid directly in the aqueous phase and titrating a 10.0 mL aliquot; the same way, experiments were performed in the reactor based on the standardization of heptol and salinity already discussed (3.5%).

[5] = Partition equilibrium in the presence of demulsifiers (Dissolvan 961, Dissolvan 974)
[6] = Partition equilibrium in the presence of surfactants (TBA, CTA, TMA); format: physicochemical
Excerpt: The presence of chemical compounds usually added in the chain of unit operations of oil extraction and production, such as demulsifiers and surfactants, can affect the partition equilibrium of species in this water/oil system. In order to understand the extent of this effect, as well as discern the relevance of the chemical structure on this effect, the following items were chosen: • Dissolvan 961 (Clariant), composed of oil hydrocarbons (CAS 918-811-1) and ethanol (CAS 64-17-5); • Dissolvan 974 (Clariant), composed of EO-PO block polymer poly adducts and Bisphenol-A-diglycidyl ether (CAS 68123-18-2) and ethanol (CAS 64-17-5); • Tetrabutylammonium chloride (CAS 1112-67-0), 97% purity; • Cetyltrimethylammonium chloride (CAS 112-02-7), 25% in water; and • Trimethylammonium chloride (CAS 593-81-7), 98% purity.
For this study, the experiments (in triplicate) used between 100.0 and 1000.0 mg·L^−1 of each compound, comparing the results with control tests (absence of the component), all with constant salinity at 3.5% (m·v^−1). Finally, neutralization titration with a standardized NaOH titrant solution was used to determine the effect on the partition equilibrium for four acidic species (the same as in the other examples, except for dicyclohexylacetic acid).
Considering the study with surfactants, the (individual) addition of three species to the control system was evaluated (tetrabutylammonium chloride (TBA), tetramethylammonium chloride (TMA) and cetyltrimethylammonium chloride (CTA)). For this purpose, the surfactants have distinct chemical structures, namely the size of the side chain, and their eventual effect on the partition equilibrium of the acidic species was evaluated.

[7] = Partition equilibrium in reactor pressurized with CO2, in presence and absence of alkalinity (NaHCO3, Na2CO3), back titration
Procedure: In the initial tests, 100 mL of heptol and 300 mL of water (with or without salinity) were used, with the addition of acidic species in the organic phase, in order to verify migration to the aqueous phase. As a rule, the system was kept under agitation at 500 rpm for 8 min, followed by rest for 10 min and, finally, collection of 50.0 mL aliquots of the aqueous phase for titrimetric analysis.
A 316 stainless steel alloy reactor (Parr®) (capacity for 600 mL and operational up to 20 MPa pressure) was used. For this purpose, a temperature range between 25° C. and 80° C. and pressure between 0.1 MPa and 1.0 MPa were used, and the reactor was pressurized with CO2. Thus, the results were compared (in terms of migration of the acidic species (%, mol) by means of back titrations) and the influence of pressure and temperature on the partition was estimated, as well as possible synergistic effects with the sources of alkalinity added to the aqueous phase.

## CCCCC(=O)O [Pentanoic Acid, pentanoic acid]
[1]; Absence of ions
  Migration: 77.0 %, mol
[1]; Calcium 400 mg · L^−1
  Migration: 90.0 %, mol
[1]; Calcium 400 mg · L^−1, listed as pentanoic acid
  Migration: ~100 %, mol
[1]; Calcium 1200 mg · L^−1
  Migration: 98.7 %, mol
[1]; Calcium 2600 mg · L^−1
  Migration: 96.7 %, mol
[1]; Strontium 400 mg · L^−1
  Migration: 100.0 %, mol
[1]; Strontium 1200 mg · L^−1
  Migration: 100.0 %, mol
[1]; Strontium 2600 mg · L^−1
  Migration: 100.0 %, mol
[1]; strontium 400-2600 mg·L^−1
  Effect of strontium ions on migration to the aqueous phase: increase in migration
[2]; 30% (m·v^−1) NaCl versus tests without salinity
  Salting out effect (reduction in the number of moles contained in the aqueous phase): approximately 300%
[2]; Salinity 3.5 (%, m · m^−1) NaCl
  Migration: 73.3 %, mol
[2]; Salinity 18.0 (%, m · m^−1) NaCl
  Migration: 40.0 %, mol
[2]; Salinity 30.0 (%, m · m^−1) NaCl
  Migration: 23.3 %, mol
[3]
  Migration: 76.7 %, mol
[4]; Na2CO3 + NaHCO3 (3.48×10^−5 mol)
  Availability (reference value): 66.0 % mol
[4]; NaHCO3 (3.45×10^−5 mol)
  Availability (reference value): 90.7 % mol
[5]; Absence of ions (no demulsifier), salinity 3.5%
  Migration: 77.0 %, mol
[5]; D961 50 mg · L^−1
  Migration: 67.0 %, mol
[5]; D961 100 mg · L^−1
  Migration: 70.0 %, mol
[5]; D961 1000 mg · L^−1
  Migration: 75.7 %, mol
[5]; D974 50 mg · L^−1
  Migration: 66.9 %, mol
[5]; D974 100 mg · L^−1
  Migration: 74.3 %, mol
[5]; D974 1000 mg · L^−1
  Migration: 74.8 %, mol
[5]; up to 1000 mg·L^−1, 95% significance
  Effect of demulsifiers on partition equilibrium: no observable effect
[6]; Absence of surfactant, salinity 3.5%
  Migration: 77.0 %, mol
[6]; CTA100 (cetyltrimethylammonium chloride 100 mg · L^−1)
  Migration: 76.0 %, mol
[6]; CTA1000 (1000 mg · L^−1)
  Migration: 85.0 %, mol
[6]; TBA100 (tetrabutylammonium chloride 100 mg · L^−1)
  Migration: 76.2 %, mol
[6]; TBA1000 (1000 mg · L^−1)
  Migration: 73.3 %, mol
[6]; TMA100 (trimethylammonium chloride 100 mg · L^−1)
  Migration: 83.2 %, mol
[6]; TMA1000 (1000 mg · L^−1)
  Migration: 83.5 %, mol
[6]; surfactant CTA, 1000 mg·L^−1
  Increase in migration to the aqueous phase with CTA: ~10%
[6]; surfactant TBA, different concentrations
  Effect of TBA on migration to the aqueous phase: no significant effect
[6]; surfactant TMA, from 100 mg·L^−1
  Increase in affinity for the hydrophilic phase with TMA: approximately 10%
[7]; 25° C. and 1.0 MPa CO2, no alkalinity
  Migration: 100 % mol
[7]; 80° C. and 1.0 MPa CO2, no alkalinity
  Migration: 82.4 % mol
[7]; Na2CO3 + NaHCO3, 25° C. and 0.1 MPa
  Migration: 61.3 % mol
[7]; Na2CO3 + NaHCO3, 25° C. and 1.0 MPa CO2
  Migration: 100 % mol
[7]; Na2CO3 + NaHCO3, 80° C. and 1.0 MPa CO2
  Migration: 79.9 % mol
[7]; NaHCO3, 25° C. and 0.1 MPa
  Migration: 69.2 % mol
[7]; NaHCO3, 25° C. and 1.0 MPa CO2
  Migration: 100 % mol
[7]; NaHCO3, 80° C. and 1.0 MPa CO2
  Migration: 96.3 % mol
[7]; Reference (heptol + 3.5% NaCl), no alkalinity
  Migration: 77 % mol
